# Measured values published in patent publication US10376520B2, “Methods for the treatment of cardiovascular disorders” (Galapagos NV, priority 2015, dated 2019).
# System: RA patients
# Test: LDL determination, Study 1 (RA patients, add-on to MTX)
# Format: in vivo, human
# Conditions: for [LDL] Mean CFB / [LDL] Median CFB: Study 1 12 weeks results
# Description: Double-blind, placebo-controlled add on study in subjects with moderately to severely active RA who have an inadequate response to methotrexate (MTX) (oral or parenteral).
# 595 subjects randomized to one of 6 dose regimens of Compound 1 (dosed as a [Compound 1:HCl:3H2O]) (3 dose levels administered either once or twice daily) or placebo on top of each subject's stable dose of MTX.
# Compound 1 (dosed as a [Compound 1:HCl:3H2O]) is dosed for twelve weeks once daily (q.d.) (50 mg, 100 mg or 200 mg) or twice daily (b.i.d.) (25 mg, 50 mg or 100 mg); or placebo.
# At Week 12, the subjects on placebo who have not achieved 20% improvement in swollen joint count (SJC66) and tender joint count (TJC68) are re-randomized automatically to receive Compound 1 (dosed as a [Compound 1:HCl:3H2O]) either at 100 mg q.d. or 50 mg b.i.d. doses in a blinded fashion; subjects on 50 mg q.d. who have not achieved 20% improvement in SJC66 and TJC68 will be assigned to 100 mg q.d. and subjects on 25 mg b.i.d. that have not achieved a 20% improvement in SJC66 and TJC68 will be assigned to 50 mg b.i.d. Subjects who switch treatment at week 12 are handled as if they discontinued at week 12 for the purpose of statistical analysis, whereas subjects in the other groups will maintain their randomized treatment until Week 24.
# The determination of [LDL]-cholesterol is made using an automated method taking advantage of the selective micellary solubilization of [LDL]-cholesterol by a nonionic detergent and the interaction of a sugar compound and lipoproteins (VLDL and chylomicrons).
# When a detergent is included in the enzymatic method for cholesterol determination (cholesterol esterase, cholesterol oxidase coupling reaction), the relative reactivities of cholesterol in the lipoprotein fractions increase in this order: [HDL]<chylomicrons <VLDL <[LDL]. In the presence of Mg^2+, a sugar compound markedly reduces the enzymatic reaction of the cholesterol measurement in VLDL and chylomicrons. The combination of a sugar compound with detergent enables the selective determination of [LDL]-cholesterol in serum. (Friedewald et al., 1972; Rifai et al., 1992)
# Homogeneous enzymatic colorimetric assay.
# In the presence of peroxidase, the hydrogen peroxide generated reacts with 4-aminoantipyrine and Sodium N-(2-hydroxy-3-sulfopropyl)-3,5-dimethoxyaniline (HSDA) to form a purple-blue dye.
# The color intensity of this dye is directly proportional to the cholesterol concentration and is measured photometrically.
# Human serum and plasma samples [LDL] determination was done on a Roche/Hitachi Cobas c 701/702 system which automatically calculate the analyte concentration of each sample. Samples containing precipitates are centrifuged before performing the assay.
compound,measurement,setting,value
"O=C(Nc1nc2cccc(-c3ccc(CN4CCS(=O)(=O)CC4)cc3)n2n1)C1CC1 [Compound 1, cyclopropanecarboxylic acid {5-[4-(1,1-dioxo-thiomorpholin-4-ylmethyl)-phenyl]-[1,2,4]triazolo[1,5-a]pyridin-2yl}-amide]",[LDL] Mean percentage CFB - 24 weeks results,"25 mg b.i.d continued over 24 weeks, week 1",2.79%
same,[LDL] Mean percentage CFB - 24 weeks results,"25 mg b.i.d continued over 24 weeks, week 2",3.88%
same,[LDL] Mean percentage CFB - 24 weeks results,"25 mg b.i.d continued over 24 weeks, week 4",4.15%
same,[LDL] Mean percentage CFB - 24 weeks results,"25 mg b.i.d continued over 24 weeks, week 8",3.83%
same,[LDL] Mean percentage CFB - 24 weeks results,"25 mg b.i.d continued over 24 weeks, week 12",7.21%
same,[LDL] Mean percentage CFB - 24 weeks results,"25 mg b.i.d continued over 24 weeks, week 16",6.54%
same,[LDL] Mean percentage CFB - 24 weeks results,"25 mg b.i.d continued over 24 weeks, week 20",7.42%
same,[LDL] Mean percentage CFB - 24 weeks results,"25 mg b.i.d continued over 24 weeks, week 24",8.14%
same,[LDL] Mean percentage CFB - 24 weeks results,"50 mg b.i.d. continued over 24 weeks, week 1",4.19%
same,[LDL] Mean percentage CFB - 24 weeks results,"50 mg b.i.d. continued over 24 weeks, week 2",3.43%
same,[LDL] Mean percentage CFB - 24 weeks results,"50 mg b.i.d. continued over 24 weeks, week 4",7.11%
same,[LDL] Mean percentage CFB - 24 weeks results,"50 mg b.i.d. continued over 24 weeks, week 8",4.75%
same,[LDL] Mean percentage CFB - 24 weeks results,"50 mg b.i.d. continued over 24 weeks, week 12",2.33%
same,[LDL] Mean percentage CFB - 24 weeks results,"50 mg b.i.d. continued over 24 weeks, week 16",5.78%
same,[LDL] Mean percentage CFB - 24 weeks results,"50 mg b.i.d. continued over 24 weeks, week 20",7.08%
same,[LDL] Mean percentage CFB - 24 weeks results,"50 mg b.i.d. continued over 24 weeks, week 24",8.29%
same,[LDL] Mean percentage CFB - 12 weeks results,"50 mg q.d. (N = 82), week 1",0%
same,[LDL] Mean percentage CFB - 12 weeks results,"50 mg q.d. (N = 82), week 2",1%
same,[LDL] Mean percentage CFB - 12 weeks results,"50 mg q.d. (N = 82), week 4",0%
same,[LDL] Mean percentage CFB - 12 weeks results,"50 mg q.d. (N = 82), week 8",3%
same,[LDL] Mean percentage CFB - 12 weeks results,"50 mg q.d. (N = 82), week 12",6%
same,[LDL] Mean percentage CFB - 24 weeks results,"50 mg q.d. continued over 24 weeks, week 1",0.26%
same,[LDL] Mean percentage CFB - 24 weeks results,"50 mg q.d. continued over 24 weeks, week 2",−0.24%
same,[LDL] Mean percentage CFB - 24 weeks results,"50 mg q.d. continued over 24 weeks, week 4",0.35%
same,[LDL] Mean percentage CFB - 24 weeks results,"50 mg q.d. continued over 24 weeks, week 8",3.58%
same,[LDL] Mean percentage CFB - 24 weeks results,"50 mg q.d. continued over 24 weeks, week 12",6.67%
same,[LDL] Mean percentage CFB - 24 weeks results,"50 mg q.d. continued over 24 weeks, week 16",6.70%
same,[LDL] Mean percentage CFB - 24 weeks results,"50 mg q.d. continued over 24 weeks, week 20",6.29%
same,[LDL] Mean percentage CFB - 24 weeks results,"50 mg q.d. continued over 24 weeks, week 24",6.05%
same,[LDL] Mean percentage CFB - 24 weeks results,"100 mg b.i.d. continued over 24 weeks, week 1",8.14%
same,[LDL] Mean percentage CFB - 24 weeks results,"100 mg b.i.d. continued over 24 weeks, week 4",7.69%
same,[LDL] Mean percentage CFB - 24 weeks results,"100 mg b.i.d. continued over 24 weeks, week 8",13.14%
same,[LDL] Mean percentage CFB - 24 weeks results,"100 mg b.i.d. continued over 24 weeks, week 12",11.86%
same,[LDL] Mean percentage CFB - 24 weeks results,"100 mg b.i.d. continued over 24 weeks, week 16",9.44%
same,[LDL] Mean percentage CFB - 24 weeks results,"100 mg b.i.d. continued over 24 weeks, week 20",7.71%
same,[LDL] Mean percentage CFB - 24 weeks results,"100 mg b.i.d. continued over 24 weeks, week 24",12.88%
same,[LDL] Mean percentage CFB - 12 weeks results,"100 mg q.d. (N = 85), week 1",5%
same,[LDL] Mean percentage CFB - 12 weeks results,"100 mg q.d. (N = 85), week 2",2%
same,[LDL] Mean percentage CFB - 12 weeks results,"100 mg q.d. (N = 85), week 4",5%
same,[LDL] Mean percentage CFB - 12 weeks results,"100 mg q.d. (N = 85), week 8",4%
same,[LDL] Mean percentage CFB - 12 weeks results,"100 mg q.d. (N = 85), week 12",6%
same,[LDL] Mean percentage CFB - 24 weeks results,"100 mg q.d. continued over 24 weeks, week 1",5.08%
same,[LDL] Mean percentage CFB - 24 weeks results,"100 mg q.d. continued over 24 weeks, week 2",1.97%
same,[LDL] Mean percentage CFB - 24 weeks results,"100 mg q.d. continued over 24 weeks, week 4",5.31%
same,[LDL] Mean percentage CFB - 24 weeks results,"100 mg q.d. continued over 24 weeks, week 8",3.51%
same,[LDL] Mean percentage CFB - 24 weeks results,"100 mg q.d. continued over 24 weeks, week 12",5.69%
same,[LDL] Mean percentage CFB - 24 weeks results,"100 mg q.d. continued over 24 weeks, week 16",0.89%
same,[LDL] Mean percentage CFB - 24 weeks results,"100 mg q.d. continued over 24 weeks, week 20",1.19%
same,[LDL] Mean percentage CFB - 24 weeks results,"100 mg q.d. continued over 24 weeks, week 24",2.66%
same,[LDL] Mean percentage CFB - 12 weeks results,"200 mg q.d. (N = 86), week 1",6%
same,[LDL] Mean percentage CFB - 12 weeks results,"200 mg q.d. (N = 86), week 2",6%
same,[LDL] Mean percentage CFB - 12 weeks results,"200 mg q.d. (N = 86), week 4",6%
same,[LDL] Mean percentage CFB - 12 weeks results,"200 mg q.d. (N = 86), week 8",8%
same,[LDL] Mean percentage CFB - 12 weeks results,"200 mg q.d. (N = 86), week 12",8%
same,[LDL] Mean percentage CFB - 24 weeks results,"200 mg q.d. continued over 24 weeks, week 1",6.34%
same,[LDL] Mean percentage CFB - 24 weeks results,"200 mg q.d. continued over 24 weeks, week 2",5.81%
same,[LDL] Mean percentage CFB - 24 weeks results,"200 mg q.d. continued over 24 weeks, week 4",5.97%
same,[LDL] Mean percentage CFB - 24 weeks results,"200 mg q.d. continued over 24 weeks, week 8",7.93%
same,[LDL] Mean percentage CFB - 24 weeks results,"200 mg q.d. continued over 24 weeks, week 12",7.96%
same,[LDL] Mean percentage CFB - 24 weeks results,"200 mg q.d. continued over 24 weeks, week 16",7.99%
same,[LDL] Mean percentage CFB - 24 weeks results,"200 mg q.d. continued over 24 weeks, week 20",8.85%
same,[LDL] Mean percentage CFB - 24 weeks results,"200 mg q.d. continued over 24 weeks, week 24",7.78%
same,[LDL] Mean percentage CFB - 12 weeks results,"2 x 25 mg b.i.d. (N = 86), week 1",3%
same,[LDL] Mean percentage CFB - 12 weeks results,"2 x 25 mg b.i.d. (N = 86), week 2",4%
same,[LDL] Mean percentage CFB - 12 weeks results,"2 x 25 mg b.i.d. (N = 86), week 4",3%
same,[LDL] Mean percentage CFB - 12 weeks results,"2 x 25 mg b.i.d. (N = 86), week 8",2%
same,[LDL] Mean percentage CFB - 12 weeks results,"2 x 25 mg b.i.d. (N = 86), week 12",6%
same,[LDL] Mean percentage CFB - 12 weeks results,"2 x 50 mg b.i.d. (N = 85), week 1",4%
same,[LDL] Mean percentage CFB - 12 weeks results,"2 x 50 mg b.i.d. (N = 85), week 2",3%
same,[LDL] Mean percentage CFB - 12 weeks results,"2 x 50 mg b.i.d. (N = 85), week 4",7%
same,[LDL] Mean percentage CFB - 12 weeks results,"2 x 50 mg b.i.d. (N = 85), week 8",5%
same,[LDL] Mean percentage CFB - 12 weeks results,"2 x 50 mg b.i.d. (N = 85), week 12",2%
same,[LDL] Mean percentage CFB - 12 weeks results,"2 x 100 mg b.i.d. (N = 84), week 1",8%
same,[LDL] Mean percentage CFB - 12 weeks results,"2 x 100 mg b.i.d. (N = 84), week 2",6%
same,[LDL] Mean percentage CFB - 12 weeks results,"2 x 100 mg b.i.d. (N = 84), week 4",8%
same,[LDL] Mean percentage CFB - 12 weeks results,"2 x 100 mg b.i.d. (N = 84), week 8",13%
same,[LDL] Mean percentage CFB - 12 weeks results,"2 x 100 mg b.i.d. (N = 84), week 12",12%
same,[LDL] Mean CFB,"50 mg q.d., week 1",-0.01 mmol/L
same,[LDL] Median CFB,"50 mg q.d., week 1",-0.01 mmol/L
same,[LDL] Mean CFB,"50 mg q.d., week 2",0.02 mmol/L
same,[LDL] Median CFB,"50 mg q.d., week 2",0.02 mmol/L
same,[LDL] Mean CFB,"50 mg q.d., week 4",0.01 mmol/L
same,[LDL] Median CFB,"50 mg q.d., week 4",-0.01 mmol/L
same,[LDL] Mean CFB,"50 mg q.d., week 8",0.06 mmol/L
same,[LDL] Median CFB,"50 mg q.d., week 8",0.07 mmol/L
same,[LDL] Mean CFB,"50 mg q.d., week 12",0.14 mmol/L
same,[LDL] Median CFB,"50 mg q.d., week 12",0.13 mmol/L
same,[LDL] Mean CFB,"100 mg q.d., week 1",0.11 mmol/L
same,[LDL] Median CFB,"100 mg q.d., week 1",0.1 mmol/L
same,[LDL] Mean CFB,"100 mg q.d., week 2",0.01 mmol/L
same,[LDL] Median CFB,"100 mg q.d., week 2",0.02 mmol/L
same,[LDL] Mean CFB,"100 mg q.d., week 4",0.13 mmol/L
same,[LDL] Median CFB,"100 mg q.d., week 4",0.13 mmol/L
same,[LDL] Mean CFB,"100 mg q.d., week 8",0.03 mmol/L
same,[LDL] Median CFB,"100 mg q.d., week 8",0.05 mmol/L
same,[LDL] Mean CFB,"100 mg q.d., week 12",0.13 mmol/L
same,[LDL] Median CFB,"100 mg q.d., week 12",0.13 mmol/L
same,[LDL] Mean CFB,"200 mg q.d., week 1",0.16 mmol/L
same,[LDL] Median CFB,"200 mg q.d., week 1",0.16 mmol/L
